Columns and labels:
[1] = Stability of Tc-99m labeled compound, labeling purity by HPLC; type: physicochemical; details: Ex 3-3
[2] = as above; type: physicochemical; details: for radiochemical purity: cysteine and VB1, until 4 hours (Table 5)
Experimental: 2 mL of Tc-99m was added dropwise to a lyophilized vial including 0.1 mg of GP-104, 15 μg of SnCl2, and 10 μg of cysteine, the vial was allowed to stand at room temperature for 10 minutes, and the reaction was terminated by adjusting pH to 7 using a NaOH solution. Labeling purity was confirmed to be 93.21% by HPLC (analysis conditions: Luna C18 250×4.6 mm, phosphate buffer:acetonitrile (100:0, 0 to 5 minutes; 80:20, 5 to 10 minutes; 80:20, 17 minutes; 100:0, 17.1 minutes). 100:0. 20 min), 1.0 mL/min, UV=280 nm).
In order to confirm the effect of cysteine addition after the reaction, the following experiment was performed: 0.1 mg of GP-104 was dissolved in water for injection, the pH was adjusted to about 3.5 when 10 μL of SnCl2 (1.5 mg/mL) and 2 mL of Tc-99m were added thereto, and the resulting mixture was allowed to stand at room temperature for 10 minutes. The reaction was terminated by adjusting the pH to 7 using a NaOH solution and 10 μL of cysteine (1.0 mg/mL). Labeling purity was confirmed to be 91.4% using HPLC in the same manner as in Example 2-7.
After 0.1 mg of GP-104 was dissolved in water for injection, pH was adjusted to about 3.5 and the resulting solution was allowed to stand at room temperature for 10 minutes when 10 μL of SnCl2 (1.5 mg/mL), 10 μL of cysteine (1.0 mg/mL) and 2 mL of Tc-99m were added thereto, and the reaction was terminated by adjusting the pH to 7 using a NaOH solution. Labeling purity was confirmed to be 94.84% using HPLC in the same manner as in Example 2-7.
HCl and NaOH was additionally added dropwise to the solution of Example 2-8 to perform a stability evaluation by adjusting the final pH of the solution to acidic (pH 5.5) and basic (pH 8.5) conditions, and labeling purity was confirmed using HPLC in the same manner as in Example 2-7.
HCl and NaOH was additionally added dropwise to the solution of Example 2-9 to perform a stability evaluation by adjusting the final pH of the solution to acidic (pH 5.5) and basic (pH 8.5) conditions, and labeling purity was confirmed using HPLC in the same manner as in Example 2-7.
HCl and NaOH was additionally added dropwise to the solution of Example 2-10 to perform a stability evaluation by adjusting the final pH of the solution to acidic (pH 5.5) and basic (pH 8.5) conditions, and labeling purity was confirmed using HPLC in the same manner as in Example 2-7.
0.1 mg of GP-105 was dissolved in water for injection, the pH was adjusted to about 3.5 when 10 μL of SnCl2 (1.5 mg/mL) and 2 mL of Tc-99m were added thereto, and the resulting mixture was allowed to stand at room temperature for 10 minutes. The reaction was terminated by adjusting the pH to 7 using a NaOH solution and 10 μL of cysteine (1.0 mg/mL). Labeling purity was confirmed to be 98.1% using HPLC in the same manner as in Example 2-7.
HCl and NaOH was additionally added dropwise to the solution of Example 2-12 to perform a stability evaluation by adjusting the final pH of the solution to acidic (pH 5.5) and basic (pH 8.5) conditions, and labeling purity was confirmed using HPLC in the same manner as in Example 2-7.
HCl and NaOH was additionally added dropwise to the solution of Example 2-13 to perform a stability evaluation by adjusting the final pH of the solution to acidic (pH 5.5) and basic (pH 8.5) conditions, and labeling purity was confirmed using HPLC in the same manner as in Example 2-7.
HCl and NaOH was additionally added dropwise to the solution of Example 2-14 to perform a stability evaluation by adjusting the final pH of the solution to acidic (pH 5.5) and basic (pH 8.5) conditions, and labeling purity was confirmed using HPLC in the same manner as in Example 2-7.

Q: Which “purity (HPLC)” value ([1]; addition of cysteine after reaction, pH 3, 3 hours) does the source give for `O=C(O)C[C@H](NC(=O)[C@@H]1CCCN(C(=O)CCC2CCNCC2)C1)c1cncc(OCCNC(=O)CN2CCN3CCN(CC(=O)O)CC(=O)[O][99Tc+]([O]C(=O)C3)[O]C(=O)C2)c1` [[Tc-99m]GP-104] here?
A: 42.46%

Q: And the “purity (HPLC)” value ([1]; addition of cysteine before reaction, pH 3, 0 hour)?
A: 95.6%

Q: What about the “purity (HPLC)” value ([1]; addition of cysteine before reaction, pH 7, 3 hours) of the same compound?
A: 98.53%

Q: What about the Purity ([2]; 165 nmol cysteine, acidic conditions, after 2 hours (Table 4)) of the same compound?
A: ≤ 90%

Q: And the Purity ([2]; 165 nmol cysteine, basic conditions, until 2 hours (Table 4))?
A: < 90%

Q: And the Purity ([2]; 165 nmol cysteine, neutral conditions, even after 4 hours (Table 4))?
A: ≥ 90%

Q: What about the “purity (HPLC)” value ([2]; Ex 3-3, addition of cysteine after reaction, pH 3, 0 hour) of the same compound?
A: 82.63%

Q: What about the “purity (HPLC)” value ([2]; Ex 3-3, addition of cysteine after reaction, pH 3, 1 hour) of the same compound?
A: 70.01%

Q: What about the “purity (HPLC)” value ([2]; Ex 3-3, addition of cysteine after reaction, pH 3, 2 hours) of the same compound?
A: 52.58%

Q: And the “purity (HPLC)” value ([2]; Ex 3-3, addition of cysteine after reaction, pH 3, 4 hours)?
A: 30.38%

Q: What about the “purity (HPLC)” value ([2]; Ex 3-3, addition of cysteine after reaction, pH 7, 0 hour) of the same compound?
A: 91.4%

Q: What about the “purity (HPLC)” value ([2]; Ex 3-3, addition of cysteine after reaction, pH 7, 1 hour) of the same compound?
A: 91.42%

Q: What about the “purity (HPLC)” value ([2]; Ex 3-3, addition of cysteine after reaction, pH 7, 2 hours) of the same compound?
A: 91.1%

Q: And the “purity (HPLC)” value ([2]; Ex 3-3, addition of cysteine after reaction, pH 7, 3 hours)?
A: 90.3%

Q: And the “purity (HPLC)” value ([2]; Ex 3-3, addition of cysteine after reaction, pH 7, 4 hours)?
A: 90.19%

Q: And the “purity (HPLC)” value ([2]; Ex 3-3, addition of cysteine before reaction, pH 3, 1 hour)?
A: 92.7%

Q: And the “purity (HPLC)” value ([2]; Ex 3-3, addition of cysteine before reaction, pH 3, 2 hours)?
A: 84.17%

Q: What about the “purity (HPLC)” value ([2]; Ex 3-3, addition of cysteine before reaction, pH 3, 3 hours) of the same compound?
A: 76.77%

Q: And the “purity (HPLC)” value ([2]; Ex 3-3, addition of cysteine before reaction, pH 3, 4 hours)?
A: 69.34%

Q: What about the “purity (HPLC)” value ([2]; Ex 3-3, addition of cysteine before reaction, pH 7, 0 hour) of the same compound?
A: 94.84%

Q: And the “purity (HPLC)” value ([2]; Ex 3-3, addition of cysteine before reaction, pH 7, 1 hour)?
A: 94.43%

Q: What about the “purity (HPLC)” value ([2]; Ex 3-3, addition of cysteine before reaction, pH 7, 2 hours) of the same compound?
A: 97.66%

Q: And the “purity (HPLC)” value ([2]; Ex 3-3, addition of cysteine before reaction, pH 7, 4 hours)?
A: 97.75%

Q: What about the radiochemical purity ([2]; acidic conditions) of the same compound?
A: ≥ 90%

Q: And the radiochemical purity ([2]; basic conditions)?
A: ≥ 80%

Q: And the radiochemical purity ([2]; pH of 7)?
A: ≥ 98%

Q: And the Purity ([2]; pH of 7 regardless of the timing of cysteine addition, even after 4 hours (text to Table 3))?
A: ≥ 90%

Q: And the “purity (HPLC)” value ([2]; solution of Example 2-8 (165 nmol cysteine), pH 5.5, 0 hr)?
A: 95.26%

Q: What about the “purity (HPLC)” value ([2]; solution of Example 2-8 (165 nmol cysteine), pH 5.5, 2 hr) of the same compound?
A: 91.45%

Q: What about the “purity (HPLC)” value ([2]; solution of Example 2-8 (165 nmol cysteine), pH 5.5, 4 hr) of the same compound?
A: 89.28%

Q: And the “purity (HPLC)” value ([2]; solution of Example 2-8 (165 nmol cysteine), pH 7, 0 hr)?
A: 95.26%

Q: And the “purity (HPLC)” value ([2]; solution of Example 2-8 (165 nmol cysteine), pH 7, 2 hr)?
A: 91.19%

Q: What about the “purity (HPLC)” value ([2]; solution of Example 2-8 (165 nmol cysteine), pH 7, 4 hr) of the same compound?
A: 91.61%

Q: What about the “purity (HPLC)” value ([2]; solution of Example 2-8 (165 nmol cysteine), pH 8.5, 0 hr) of the same compound?
A: 95.26%

Q: And the “purity (HPLC)” value ([2]; solution of Example 2-8 (165 nmol cysteine), pH 8.5, 2 hr)?
A: 79.83%

Q: And the “purity (HPLC)” value ([2]; solution of Example 2-8 (165 nmol cysteine), pH 8.5, 4 hr)?
A: 51.77%

Q: What about the “radiochemical purity (HPLC)” value ([2]; solution of Example 2-9 (82.5 nmol cysteine + 82.5 nmol VB1), pH 5.5, 0 hr) of the same compound?
A: 100%

Q: And the “radiochemical purity (HPLC)” value ([2]; solution of Example 2-9 (82.5 nmol cysteine + 82.5 nmol VB1), pH 5.5, 2 hr)?
A: 92.72%

Q: And the “radiochemical purity (HPLC)” value ([2]; solution of Example 2-9 (82.5 nmol cysteine + 82.5 nmol VB1), pH 5.5, 4 hr)?
A: 91.20%

Q: What about the “radiochemical purity (HPLC)” value ([2]; solution of Example 2-9 (82.5 nmol cysteine + 82.5 nmol VB1), pH 7, 0 hr) of the same compound?
A: 100%

Q: What about the “radiochemical purity (HPLC)” value ([2]; solution of Example 2-9 (82.5 nmol cysteine + 82.5 nmol VB1), pH 7, 2 hr) of the same compound?
A: 98.63%

Q: What about the “radiochemical purity (HPLC)” value ([2]; solution of Example 2-9 (82.5 nmol cysteine + 82.5 nmol VB1), pH 7, 4 hr) of the same compound?
A: 98.18%

Q: And the “radiochemical purity (HPLC)” value ([2]; solution of Example 2-9 (82.5 nmol cysteine + 82.5 nmol VB1), pH 8.5, 0 hr)?
A: 100%

Q: What about the “radiochemical purity (HPLC)” value ([2]; solution of Example 2-9 (82.5 nmol cysteine + 82.5 nmol VB1), pH 8.5, 2 hr) of the same compound?
A: 83.08%

Q: And the “radiochemical purity (HPLC)” value ([2]; solution of Example 2-9 (82.5 nmol cysteine + 82.5 nmol VB1), pH 8.5, 4 hr)?
A: 80.97%

Q: What about the “radiochemical purity (HPLC)” value ([2]; solution of Example 2-10 (82.5 nmol cysteine + 82.5 nmol VB6), pH 5.5, 0 hr) of the same compound?
A: 97.24%

Q: What about the “radiochemical purity (HPLC)” value ([2]; solution of Example 2-10 (82.5 nmol cysteine + 82.5 nmol VB6), pH 5.5, 2 hr) of the same compound?
A: 90.29%

Q: What about the “radiochemical purity (HPLC)” value ([2]; solution of Example 2-10 (82.5 nmol cysteine + 82.5 nmol VB6), pH 5.5, 4 hr) of the same compound?
A: 90.65%

Q: What about the “radiochemical purity (HPLC)” value ([2]; solution of Example 2-10 (82.5 nmol cysteine + 82.5 nmol VB6), pH 7, 0 hr) of the same compound?
A: 97.24%

Q: What about the “radiochemical purity (HPLC)” value ([2]; solution of Example 2-10 (82.5 nmol cysteine + 82.5 nmol VB6), pH 7, 2 hr) of the same compound?
A: 95.61%

Q: What about the “radiochemical purity (HPLC)” value ([2]; solution of Example 2-10 (82.5 nmol cysteine + 82.5 nmol VB6), pH 7, 4 hr) of the same compound?
A: 96.25%

Q: What about the “radiochemical purity (HPLC)” value ([2]; solution of Example 2-10 (82.5 nmol cysteine + 82.5 nmol VB6), pH 8.5, 0 hr) of the same compound?
A: 97.24%

Q: What about the “radiochemical purity (HPLC)” value ([2]; solution of Example 2-10 (82.5 nmol cysteine + 82.5 nmol VB6), pH 8.5, 2 hr) of the same compound?
A: 95.61%

Q: What about the “radiochemical purity (HPLC)” value ([2]; solution of Example 2-10 (82.5 nmol cysteine + 82.5 nmol VB6), pH 8.5, 4 hr) of the same compound?
A: 91.19%

Q: And the “radiochemical purity (HPLC)” value ([2]; solution of Example 2-14 (82.5 nmol cysteine + 82.5 nmol VB6), pH 5.5, 0 hr)?
A: 100%

Q: What about the “radiochemical purity (HPLC)” value ([2]; solution of Example 2-14 (82.5 nmol cysteine + 82.5 nmol VB6), pH 5.5, 2 hr) of the same compound?
A: 97.24%

Q: What about the “radiochemical purity (HPLC)” value ([2]; solution of Example 2-14 (82.5 nmol cysteine + 82.5 nmol VB6), pH 5.5, 4 hr) of the same compound?
A: 95.61%

Q: And the “radiochemical purity (HPLC)” value ([2]; solution of Example 2-14 (82.5 nmol cysteine + 82.5 nmol VB6), pH 7, 0 hr)?
A: 100%

Q: What about the “radiochemical purity (HPLC)” value ([2]; solution of Example 2-14 (82.5 nmol cysteine + 82.5 nmol VB6), pH 7, 2 hr) of the same compound?
A: 98.56%

Q: What about the “radiochemical purity (HPLC)” value ([2]; solution of Example 2-14 (82.5 nmol cysteine + 82.5 nmol VB6), pH 7, 4 hr) of the same compound?
A: 98.2%

Q: What about the “radiochemical purity (HPLC)” value ([2]; solution of Example 2-14 (82.5 nmol cysteine + 82.5 nmol VB6), pH 8.5, 0 hr) of the same compound?
A: 100%

Q: What about the “radiochemical purity (HPLC)” value ([2]; solution of Example 2-14 (82.5 nmol cysteine + 82.5 nmol VB6), pH 8.5, 2 hr) of the same compound?
A: 92.21%

Q: And the “radiochemical purity (HPLC)” value ([2]; solution of Example 2-14 (82.5 nmol cysteine + 82.5 nmol VB6), pH 8.5, 4 hr)?
A: 89.62%

Reference: patent publication US12527886B2, “Radiopharmaceuticals and composition for thrombus imaging” (THE ASAN FOUNDATION, priority 2020, dated 2026)
